Measured values: US12129265B2, “Therapeutic agents and uses thereof” (Ankh Life Sciences Limited, priority 2020, dated 2024)
Read-outs that look alike come from different tables or passages of the source.

Assays:
Experiment in all cases: CellTiter-Glo in vitro cell proliferation assay, Example 8
Format in all cases: cell-based, Human
JIM1 cells = details: JIM1, HMCL, read-out: Mean IC50
Protocol: (§1) In this Example, in vitro cell proliferation assays were performed using: (1) Human Myeloma tumor cell lines; (2) Human Lymphoma tumor cell lines; (3) Solid Human tumor cell lines; and (4) Parental, Lenalidomide resistant and Bortezomib resistant Jeko-1 Mantle cell Lymphoma tumor cell lines. The compounds tested were three diharmaline compounds, namely the 518B562 (or simply 562), 560, and 561 compounds. In addition, a monoharmaline product designated as 518F014 was also tested. This monoharmaline product had the following structure:
(§2) Each proliferation assay was carried out as follows. The test cells were plated in growth media using a 384-well microtiter plate at 50 μL volume. The cells were incubated for 24 hours at 37° C. in a humidified incubator. After 24 hours of incubation, the test compounds were added to the test wells in DSMO solvent, at concentrations ranging from 0.0075-100 μM. Control wells received equal volumes of DSMO, without compound. Following drugging, the cells were incubated for 72 hours at 37° C. in a humidified incubator. After this exposure, 100 μL of a 1:1 mixture of sterile water and CellTiter-Glo® reagent (Promega) was added to each well. The plates were then incubated for 60 minutes at room temperature, followed by recording the luminescence value of each well using a luminometer as a measure of cell proliferation.

H1650 (EGFR mut) cells = details: read-out: Mean IC50
Protocol: as §1, §2

A2780 cells = details: A2780, Ovarian, read-out: Mean IC50
Protocol: as §1, §2

AN3CA cells = details: Endometrial, read-out: Mean IC50
Protocol: as §1, §2

MOLP-8 cells = details: MOLP-8, MM IgD, read-out: Mean IC50
Protocol: as §1, §2

KMM-1 cells = details: KMM-1, HMCL-A, read-out: Mean IC50
Protocol: as §1, §2

MIA PaCa-2 cells = details: MIA PaCa-2, Pancreatic, read-out: Mean IC50
Protocol: as §1, §2

KMS-34 cells = details: KMS-34, HMCL-B, read-out: Mean IC50
Protocol: as §1, §2

MDA-MB-231 cells = details: MDA-MB-231, TNBC, read-out: Mean IC50
Protocol: as §1, §2

BxPC-3 cells = details: BxPC-3, Pancreatic, read-out: Mean IC50
Protocol: as §1, §2

SiHA cells = details: Cervical - SC, read-out: Mean IC50
Protocol: as §1, §2

FaDu cells = details: H&N - SC, read-out: Mean IC50
Protocol: as §1, §2

HEC-1a cells = details: Endometrial, read-out: Mean IC50
Protocol: as §1, §2

A2780CP cells = details: Ovarian, read-out: Mean IC50
Protocol: as §1, §2

OCI-LY3 cells = details: OCI-LY3, ABC-DLBCL, read-out: Mean IC50
Protocol: as §1, §2

H1975 (EGFR mut) cells = details: read-out: Mean IC50
Protocol: as §1, §2

L363 cells = details: L363, PCL/MM, read-out: Mean IC50
Protocol: as §1, §2

ASPC-1 cells = details: ASPC-1, Pancreatic, read-out: Mean IC50
Protocol: as §1, §2

MDA-MB-468 cells = details: MDA-MB-468, TNBC, read-out: Mean IC50
Protocol: as §1, §2

A498 cells = details: A498, RCC, read-out: Mean IC50
Protocol: as §1, §2

DOHH-2 cells = details: DoHH-2, GCB-DLBCL, read-out: Mean IC50
Protocol: as §1, §2

HCC70 cells = details: HCC70, TNBC, read-out: Mean IC50
Protocol: as §1, §2

RPMI-8226 cells = details: RPMI-8226, HMM
Protocol: as §2
In this example, different cell lines were subjected to in vitro cell proliferation assays as described in Example 8. In particular, the cell lines are identified in the following Table 17, and the tissue types were: Pancreatic; Endometrial; Triple-Negative Breast Cancer (TNBC); Non-Small-Cell Lung Carcinoma (NSCLC); Ovarian; Renal Cell Carcinoma (RCC); Cervical-Squamous Cell; […] (H&N-Squamous Cell); Germinal Center B Cell-Like Novo Diffuse Large B-Cell Lymphoma (GCB-DLBCL); Activated B-Cell—Diffuse Large B Cell Lymphoma (ABC-DLBCL); Human Myeloma; Human Myeloma Cell Line Lymphocyte-Like; Human Myeloma Cell Line Lymphocyte-Like Myeloma Pleural Effusion Infiltration; Human Multiple Myeloma; Plasma Cell Leukemia/Multiple Myeloma Epstein-Barr Nuclear Antigen-Negative (EBNA-Negative) and to Express mRNA for Proto-Oncogene B-Cell Lymphoma 2 (BCL2); Multiple Myeloma from Peripheral Blood Type IgD Lmabda.

For COc1ccc2c3c([nH]c2c1)C(CC(CC1=NCCc2c1[nH]c1cc(OC)ccc21)c1c(F)c(F)c(F)c(F)c1F)=NCC3 [compound 24], which IC50 (JIM1 cells; Homo sapiens) is on record?
The IC50 was 56.1 µM.

And the IC50 (H1650 (EGFR mut) cells; Homo sapiens, NCI-H1650, NSCLC)?
The IC50 was 12.5 µM.

And the IC50 (A2780 cells; Homo sapiens)?
Its IC50 is 10.6 µM.

And the IC50 (AN3CA cells; Homo sapiens, AN3-CA)?
Its IC50 is 11.2 µM.

And the IC50 (MOLP-8 cells; Homo sapiens)?
The IC50 was 10.6 µM.

And the IC50 (KMM-1 cells; Homo sapiens)?
The IC50 was 11.3 µM.

What about the IC50 (MIA PaCa-2 cells; Homo sapiens) of the same compound?
The IC50 was 13 µM.

What about the IC50 (KMS-34 cells; Homo sapiens) of the same compound?
Its IC50 is 7.84 µM.

What about the IC50 (MDA-MB-231 cells; Homo sapiens) of the same compound?
Its IC50 is 20.7 µM.

And the IC50 (BxPC-3 cells; Homo sapiens)?
The IC50 was 10.8 µM.

And the IC50 (SiHA cells; Homo sapiens)?
The IC50 was 58.9 µM.

And the IC50 (FaDu cells; Homo sapiens)?
The IC50 was 11.7 µM.

And the IC50 (HEC-1a cells; Homo sapiens)?
The IC50 was 48.2 µM.

What about the IC50 (A2780CP cells; Homo sapiens, A2780C/P) of the same compound?
The IC50 was 17.8 µM.

What about the IC50 (OCI-LY3 cells; Homo sapiens) of the same compound?
The IC50 was 11.4 µM.

What about the IC50 (H1975 (EGFR mut) cells; Homo sapiens, NCI-H1975, NSCLC) of the same compound?
Its IC50 is 11.7 µM.

And the IC50 (L363 cells; Homo sapiens, L-363)?
Its IC50 is 13.2 µM.

And the IC50 (ASPC-1 cells; Homo sapiens, ASPC1)?
The IC50 was 32.7 µM.

What about the IC50 (MDA-MB-468 cells; Homo sapiens) of the same compound?
The IC50 was 16.6 µM.

And the IC50 (A498 cells; Homo sapiens)?
The IC50 was 83.8 µM.

What about the IC50 (DOHH-2 cells; Homo sapiens) of the same compound?
Its IC50 is 5.58 µM.

What about the IC50 (HCC70 cells; Homo sapiens) of the same compound?
Its IC50 is 25.7 µM.

What about the IC50 (RPMI-8226 cells; Homo sapiens) of the same compound?
The IC50 was 5.05 µM.

With CCOc1cc(C(CC2=NCCc3c2[nH]c2cc(OC)ccc32)CC2=NCCc3c2[nH]c2cc(OC)ccc32)ccc1O [compound 2] as the compound, how does the IC50 (JIM1 cells) read?
The IC50 was 11.5 µM.

What about the IC50 (H1650 (EGFR mut) cells; NSCLC) of the same compound?
The IC50 was 21.6 µM.

And the IC50 (A2780 cells)?
Its IC50 is 16.9 µM.

And the IC50 (AN3CA cells)?
Its IC50 is 6.72 µM.

And the IC50 (MOLP-8 cells)?
Its IC50 is 5.3 µM.

And the IC50 (KMM-1 cells)?
The IC50 was 9.4 µM.

And the IC50 (MIA PaCa-2 cells)?
Its IC50 is 7.51 µM.

And the IC50 (KMS-34 cells)?
Its IC50 is 9.35 µM.

What about the IC50 (MDA-MB-231 cells) of the same compound?
The IC50 was 14.3 µM.

What about the IC50 (BxPC-3 cells) of the same compound?
The IC50 was 7.88 µM.

What about the IC50 (SiHA cells) of the same compound?
The IC50 was 17.1 µM.

And the IC50 (FaDu cells)?
Its IC50 is 13.5 µM.

And the IC50 (HEC-1a cells)?
Its IC50 is 21.6 µM.

And the IC50 (A2780CP cells)?
Its IC50 is 20.2 µM.

What about the IC50 (OCI-LY3 cells) of the same compound?
Its IC50 is 6.58 µM.

What about the IC50 (H1975 (EGFR mut) cells; NSCLC) of the same compound?
Its IC50 is 19.5 µM.

And the IC50 (L363 cells)?
Its IC50 is 6.26 µM.

What about the IC50 (ASPC-1 cells) of the same compound?
Its IC50 is 15.2 µM.

What about the IC50 (MDA-MB-468 cells) of the same compound?
Its IC50 is 9.9 µM.

And the IC50 (A498 cells)?
Its IC50 is 16.8 µM.

What about the IC50 (DOHH-2 cells) of the same compound?
The IC50 was 3.66 µM.

And the IC50 (HCC70 cells)?
The IC50 was 21.2 µM.

And the IC50 (RPMI-8226 cells)?
The IC50 was 8.51 µM.

How did the IC50 (JIM1 cells) turn out when COc1ccc2c3c([nH]c2c1)C(CC(CC1=NCCc2c1[nH]c1cc(OC)ccc21)c1cc(Br)c(O)c(OC)c1)=NCC3 [compound 12] was run?
Its IC50 is 6.04 µM.

What about the IC50 (H1650 (EGFR mut) cells; NSCLC) of the same compound?
The IC50 was 21.6 µM.

What about the IC50 (A2780 cells) of the same compound?
The IC50 was 21.2 µM.

What about the IC50 (AN3CA cells) of the same compound?
The IC50 was 5.36 µM.

And the IC50 (MOLP-8 cells)?
Its IC50 is 3.88 µM.

And the IC50 (KMM-1 cells)?
The IC50 was 10.6 µM.

And the IC50 (MIA PaCa-2 cells)?
The IC50 was 11.7 µM.

What about the IC50 (KMS-34 cells) of the same compound?
Its IC50 is 7.19 µM.

What about the IC50 (MDA-MB-231 cells) of the same compound?
The IC50 was 11.3 µM.

And the IC50 (BxPC-3 cells)?
The IC50 was 11.3 µM.

What about the IC50 (SiHA cells) of the same compound?
The IC50 was 50.2 µM.

And the IC50 (FaDu cells)?
The IC50 was 18.2 µM.

What about the IC50 (HEC-1a cells) of the same compound?
The IC50 was 24.8 µM.

What about the IC50 (A2780CP cells) of the same compound?
The IC50 was 20.5 µM.

What about the IC50 (OCI-LY3 cells) of the same compound?
The IC50 was 11.3 µM.

And the IC50 (H1975 (EGFR mut) cells; NSCLC)?
Its IC50 is 13 µM.

And the IC50 (L363 cells)?
The IC50 was 10.9 µM.

And the IC50 (ASPC-1 cells)?
The IC50 was 31.3 µM.

And the IC50 (MDA-MB-468 cells)?
The IC50 was 11.6 µM.

And the IC50 (A498 cells)?
Its IC50 is 40.9 µM.

And the IC50 (DOHH-2 cells)?
Its IC50 is 3.72 µM.

And the IC50 (HCC70 cells)?
Its IC50 is 22 µM.

And the IC50 (RPMI-8226 cells)?
The IC50 was 10.2 µM.

Which results are given for COc1ccc2c3c([nH]c2c1)C(CC(CC1=NCCc2c1[nH]c1cc(OC)ccc21)c1cc(F)c(F)cc1F)=NCC3 [compound 23]?
IC50 (JIM1 cells): 6.32 µM; IC50 (H1650 (EGFR mut) cells; NSCLC): 5.89 µM; IC50 (A2780 cells): 5.07 µM; IC50 (AN3CA cells): 2.38 µM; IC50 (MOLP-8 cells): 3.19 µM; IC50 (KMM-1 cells): 3.98 µM; IC50 (MIA PaCa-2 cells): 5.64 µM; IC50 (KMS-34 cells): 3.47 µM; IC50 (MDA-MB-231 cells): 5.94 µM; IC50 (BxPC-3 cells): 4.97 µM; IC50 (SiHA cells): 11.7 µM; IC50 (FaDu cells): 6.14 µM; IC50 (HEC-1a cells): 12.5 µM; IC50 (A2780CP cells): 6.49 µM; IC50 (OCI-LY3 cells): 5.45 µM; IC50 (H1975 (EGFR mut) cells; NSCLC): 8.23 µM; IC50 (L363 cells): 4.72 µM; IC50 (ASPC-1 cells): 9.26 µM; IC50 (MDA-MB-468 cells): 6.54 µM; IC50 (A498 cells): 21.4 µM; IC50 (DOHH-2 cells): 3.73 µM; IC50 (HCC70 cells): 10.9 µM; IC50 (RPMI-8226 cells): 1.28 µM
